US9499535B2, “Kinase inhibitors” (ORIGENIS GMBH, priority 2011, dated 2016)

Columns and labels:
SYK kinase = molecular target: T1, SYK kinase (Homo sapiens, UniProt P43405); test: SYK assay (OMNIA Kinase Assay, Invitrogen); assay type: biochemical; conditions: apparent Ki calculated from the IC50 using the Cheng-Prusoff equation; 1 mM ATP, 10 μM Peptide Substrate; read-out: SYK Activities: Ki
T1 construct: purchased Invitrogen, Carlsbad
Outline: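 Reaction velocities were measured from kinetic fluorescence reads (360/485 nm, every 30 s over 30 min) of Mg2+-chelated SOX signal. Conditions were 1 mM ATP, 10 μM Omnia Tyr 7 peptide and 0.2 mM DTT at 30° C. Sigmoidal IC50 fits were converted to apparent Ki using Cheng-Prusoff.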

LRRK2 = LRRK2 (Homo sapiens, UniProt Q5S007); test: LRRK2 assay (LanthaScreen Eu Kinase Binding Assay); conditions: 5 nM LRRK2, 10 nM tracer 236, RT 1 h; read-out: LRRK2 Activites: IC50
Outline: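 IC50 was derived from a sigmoidal dose-response fit with variable slope, plotting emission ratio against inhibitor concentration. The read-out is loss of FRET between a europium-labelled anti-tag antibody on the kinase and a tracer displaced by inhibitor.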

MYLK = MYLK (Homo sapiens, UniProt Q15746); test: MYLK assay (LanthaScreen Eu Kinase Binding Assay); conditions: 5 nM MYLK, 30 nM tracer 236, RT 1 h; read-out: MYLK Activites: IC50
Outline: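 TR-FRET tracer-displacement binding: 5 nM MYLK with 2 nM Eu-anti-GST antibody and 30 nM tracer 236 in kinase buffer A, 1 h at RT. The 665/615 nm emission ratio was plotted against inhibitor concentration; IC50 from variable-slope sigmoidal fit.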

Chain of MYLK (Q15746 whole entry): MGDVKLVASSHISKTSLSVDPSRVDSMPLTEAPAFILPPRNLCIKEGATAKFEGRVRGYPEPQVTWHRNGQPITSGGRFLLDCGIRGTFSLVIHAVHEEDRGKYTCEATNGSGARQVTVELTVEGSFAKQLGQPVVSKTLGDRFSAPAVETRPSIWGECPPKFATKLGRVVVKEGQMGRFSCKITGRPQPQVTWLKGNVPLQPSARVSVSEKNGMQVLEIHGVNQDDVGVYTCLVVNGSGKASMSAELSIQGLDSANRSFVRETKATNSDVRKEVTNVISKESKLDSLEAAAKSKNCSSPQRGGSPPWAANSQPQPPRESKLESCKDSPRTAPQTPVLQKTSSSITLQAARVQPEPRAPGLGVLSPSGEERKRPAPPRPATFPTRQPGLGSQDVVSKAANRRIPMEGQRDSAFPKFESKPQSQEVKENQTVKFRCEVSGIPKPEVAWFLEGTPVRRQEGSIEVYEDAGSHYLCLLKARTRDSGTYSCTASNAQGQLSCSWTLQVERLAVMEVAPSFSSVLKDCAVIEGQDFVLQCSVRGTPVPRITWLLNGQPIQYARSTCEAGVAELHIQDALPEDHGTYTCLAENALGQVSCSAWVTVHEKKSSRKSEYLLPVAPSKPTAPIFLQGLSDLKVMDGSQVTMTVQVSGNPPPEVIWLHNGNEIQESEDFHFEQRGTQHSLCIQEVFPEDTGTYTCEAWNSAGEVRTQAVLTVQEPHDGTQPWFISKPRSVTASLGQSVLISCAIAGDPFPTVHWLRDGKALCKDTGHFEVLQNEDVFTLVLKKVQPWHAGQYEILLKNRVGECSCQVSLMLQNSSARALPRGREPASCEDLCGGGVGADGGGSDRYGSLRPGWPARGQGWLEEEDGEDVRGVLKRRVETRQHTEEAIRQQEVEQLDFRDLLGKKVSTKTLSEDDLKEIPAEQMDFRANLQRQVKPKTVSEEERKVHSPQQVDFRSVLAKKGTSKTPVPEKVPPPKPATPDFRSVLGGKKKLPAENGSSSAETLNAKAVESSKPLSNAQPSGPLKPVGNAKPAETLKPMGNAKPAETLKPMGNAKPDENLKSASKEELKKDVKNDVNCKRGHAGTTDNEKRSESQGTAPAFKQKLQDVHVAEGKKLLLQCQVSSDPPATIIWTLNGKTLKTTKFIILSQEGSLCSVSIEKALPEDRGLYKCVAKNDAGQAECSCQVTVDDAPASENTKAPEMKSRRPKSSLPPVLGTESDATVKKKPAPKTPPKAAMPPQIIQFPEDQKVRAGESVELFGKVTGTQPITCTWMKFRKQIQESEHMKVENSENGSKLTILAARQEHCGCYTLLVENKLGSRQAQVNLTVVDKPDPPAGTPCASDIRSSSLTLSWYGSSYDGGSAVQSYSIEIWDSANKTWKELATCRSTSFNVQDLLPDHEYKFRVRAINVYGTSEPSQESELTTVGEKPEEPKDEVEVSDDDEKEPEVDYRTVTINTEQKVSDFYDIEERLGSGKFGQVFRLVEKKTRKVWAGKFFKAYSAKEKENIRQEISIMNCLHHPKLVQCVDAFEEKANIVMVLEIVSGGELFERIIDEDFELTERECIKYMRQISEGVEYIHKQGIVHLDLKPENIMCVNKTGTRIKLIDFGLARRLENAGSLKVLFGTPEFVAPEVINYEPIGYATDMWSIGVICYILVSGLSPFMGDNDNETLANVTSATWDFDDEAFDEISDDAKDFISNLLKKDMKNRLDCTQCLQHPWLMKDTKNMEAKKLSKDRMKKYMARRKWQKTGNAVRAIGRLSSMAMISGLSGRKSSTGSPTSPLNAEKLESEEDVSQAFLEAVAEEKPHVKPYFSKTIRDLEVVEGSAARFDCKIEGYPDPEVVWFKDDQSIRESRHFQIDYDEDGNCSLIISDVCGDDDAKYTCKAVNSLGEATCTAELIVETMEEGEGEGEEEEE
Chain of LRRK2 (Q5S007 970-2527 limits assumed): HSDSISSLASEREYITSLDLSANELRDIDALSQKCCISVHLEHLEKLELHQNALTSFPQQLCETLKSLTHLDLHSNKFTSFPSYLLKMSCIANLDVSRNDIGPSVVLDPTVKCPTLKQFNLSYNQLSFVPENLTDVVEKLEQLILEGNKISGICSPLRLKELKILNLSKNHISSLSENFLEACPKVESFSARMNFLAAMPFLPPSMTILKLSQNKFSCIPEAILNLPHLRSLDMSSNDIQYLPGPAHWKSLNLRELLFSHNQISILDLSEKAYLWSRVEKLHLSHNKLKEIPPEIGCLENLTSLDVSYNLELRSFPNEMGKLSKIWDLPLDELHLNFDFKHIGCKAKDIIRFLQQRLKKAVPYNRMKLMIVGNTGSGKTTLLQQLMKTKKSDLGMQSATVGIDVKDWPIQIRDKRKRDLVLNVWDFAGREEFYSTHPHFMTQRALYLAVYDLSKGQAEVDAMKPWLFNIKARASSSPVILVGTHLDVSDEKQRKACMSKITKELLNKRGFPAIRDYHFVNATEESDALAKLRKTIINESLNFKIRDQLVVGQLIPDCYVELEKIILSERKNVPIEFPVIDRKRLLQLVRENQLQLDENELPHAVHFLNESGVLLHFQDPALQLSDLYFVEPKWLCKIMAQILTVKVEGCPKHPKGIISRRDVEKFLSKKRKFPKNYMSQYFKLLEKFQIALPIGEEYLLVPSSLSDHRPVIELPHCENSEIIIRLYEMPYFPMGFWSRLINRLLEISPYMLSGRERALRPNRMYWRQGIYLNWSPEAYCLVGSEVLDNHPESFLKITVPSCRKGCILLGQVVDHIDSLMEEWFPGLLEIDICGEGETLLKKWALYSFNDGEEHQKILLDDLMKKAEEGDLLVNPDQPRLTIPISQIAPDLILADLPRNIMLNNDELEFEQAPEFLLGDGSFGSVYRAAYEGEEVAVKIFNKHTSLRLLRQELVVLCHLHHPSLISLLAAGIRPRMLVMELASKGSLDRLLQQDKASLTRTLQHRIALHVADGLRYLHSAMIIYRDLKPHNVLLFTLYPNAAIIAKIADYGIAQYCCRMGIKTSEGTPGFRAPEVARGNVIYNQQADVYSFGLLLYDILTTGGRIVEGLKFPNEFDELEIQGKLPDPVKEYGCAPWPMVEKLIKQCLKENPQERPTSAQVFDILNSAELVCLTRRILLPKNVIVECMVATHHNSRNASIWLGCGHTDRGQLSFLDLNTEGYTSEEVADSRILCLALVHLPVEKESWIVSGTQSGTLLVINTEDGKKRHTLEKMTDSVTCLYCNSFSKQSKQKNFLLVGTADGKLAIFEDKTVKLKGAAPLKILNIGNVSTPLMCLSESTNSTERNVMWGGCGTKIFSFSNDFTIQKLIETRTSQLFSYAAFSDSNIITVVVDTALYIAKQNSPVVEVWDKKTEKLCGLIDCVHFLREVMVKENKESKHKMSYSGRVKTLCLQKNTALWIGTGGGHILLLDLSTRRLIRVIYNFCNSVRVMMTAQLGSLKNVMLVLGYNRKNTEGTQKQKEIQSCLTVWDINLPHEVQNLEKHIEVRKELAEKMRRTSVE

Compound | Ki (SYK kinase) | IC50 (LRRK2) | IC50 (MYLK)
COc1ccc2nc(Nc3ccc(N4CCOCC4=O)cc3)c3n[nH]cc3c2c1 [Example #87, 4-[4-(8-Methoxy-2H-pyrazolo[3,4-c]quinolin-4-ylamino)-phenyl]-morpholin-3-one] | 100 to 1000 nM | 10 to 100 nM | < 5000 nM
COc1ccc2nc(Nc3ccc(O)c(O)c3)c3n[nH]cc3c2c1 [Example #162, 4-(8-Methoxy-2H-pyrazolo[3,4-c]quinolin-4-ylamino)-benzene-1,2-diol] | 10 to 100 nM | 100 to 1000 nM | < 5000 nM
COc1ccc2nc(Nc3ccc(C(=O)N(C)C)cc3)c3n[nH]cc3c2c1 [Example #303, 4-((8-methoxy-2H-pyrazolo[3,4-c]quinolin-4-yl)amino)-N,N-dimethylbenzamide] | 100 to 1000 nM | 10 to 100 nM | < 5000 nM
COc1cccc2nc(Nc3ccc(N4CCOCC4)cc3)c3n[nH]cc3c12 [Example #202, (9-Methoxy-2H-pyrazolo[3,4-c]quinolin-4-yl)-(4-morpholin-4-yl-phenyl)-amine] | 10 to 100 nM | 10 to 100 nM | < 5000 nM
COc1ccc2nc(Nc3ccc(OCC(=O)O)cc3)c3n[nH]cc3c2c1 [Example #290, 2-(4-((8-methoxy-2H-pyrazolo[3,4-c]quinolin-4-yl)amino)phenoxy)acetic acid] | 10 to 100 nM | 100 to 1000 nM | < 5000 nM
COc1ccc2nc(Nc3ccc4ncn(C)c4c3)c3n[nH]cc3c2c1 [Example #148, (8-Methoxy-2H-pyrazolo[3,4-c]quinolin-4-yl)-(3-methyl-3H-benzoimidazol-5-yl)-amine] | 100 to 1000 nM | 100 to 1000 nM | < 5000 nM
COc1ccc(Nc2nc3cc(OC)c(OC)cc3c3c[nH]nc23)cc1OC [Example #122, (3,4-Dimethoxy-phenyl)-(7,8-dimethoxy-2H-pyrazolo[3,4-c]quinolin-4-yl)-amine] | 10 to 100 nM | 100 to 1000 nM | < 5000 nM
COc1ccc2c(c1)nc(Nc1ccc3cn[nH]c3c1)c1n[nH]cc12 [Example #172, (1H-Indazol-6-yl)-(7-methoxy-2H-pyrazolo[3,4-c]quinolin-4-yl)-amine] | 10 to 100 nM | 100 to 1000 nM | < 5000 nM
COc1ccc2nc(Nc3ccc(N4CCN(C(C)(C)C)CC4)cc3)c3n[nH]cc3c2c1 [Example #273, [4-(4-tert-Butyl-piperazin-1-yl)-phenyl]-(8-methoxy-2H-pyrazolo[3,4-c]quinolin-4-yl)-amine] | 10 to 100 nM | 100 to 1000 nM | < 5000 nM
COc1ccc2nc(Nc3ccc4c(c3)CCCN4C)c3n[nH]cc3c2c1 [Example #308, 8-methoxy-N-(1-methyl-1,2,3,4-tetrahydroquinolin-6-yl)-2H-pyrazolo[3,4-c]quinolin-4-amine] | 10 to 100 nM | 100 to 1000 nM | < 5000 nM
COc1ccc2nc(Nc3ccc(N4CCN(CCN(C)C)CC4)cc3)c3n[nH]cc3c2c1 [Example #281, {4-[4-(2-Dimethylamino-ethyl)-piperazin-1-yl]-phenyl}-(8-methoxy-2H-pyrazolo[3,4-c]quinolin-4-yl)-amine] | 10 to 100 nM | 10 to 100 nM | < 5000 nM
COc1ccc2nc(Nc3ccc4c(c3)nc3n4CCN(C)C3)c3n[nH]cc3c2c1 [Example #160, (8-Methoxy-2H-pyrazolo[3,4-c]quinolin-4-yl)-(2-methyl-1,2,3,4-tetrahydro-benzo[4,5]imidazo[1,2-a]pyrazin-8-yl)-amine] | 10 to 100 nM | 100 to 1000 nM | < 5000 nM
COc1ccc2nc(Nc3ccc(N4CCN(CC5CC5)CC4)cc3)c3n[nH]cc3c2c1 [Example #272, [4-(4-Cyclopropylmethyl-piperazin-1-yl)-phenyl]-(8-methoxy-2H-pyrazolo[3,4-c]quinolin-4-yl)-amine] | < 10 nM | 10 to 100 nM | < 5000 nM
COc1ccc2nc(Nc3ccc(CN)cc3)c3[nH]ncc3c2c1 [Example #73, (4-Aminomethyl-phenyl)-(8-methoxy-3H-pyrazolo[3,4-c]quinolin-4-yl)-amine] | 10 to 100 nM | 100 to 1000 nM | < 5000 nM
COc1ccc2nc(Nc3cc(OC)c(OC)c(OC)c3)c3n[nH]cc3c2c1 [Example #67, (8-Methoxy-2H-pyrazolo[3,4-c]quinolin-4-yl)-(3,4,5-trimethoxy-phenyl)-amine] | < 10 nM | 100 to 1000 nM | < 5000 nM
COc1ccc2nc(Nc3ccc(C4=NCCN4)cc3)c3n[nH]cc3c2c1 [Example #86, [4-(4,5-Dihydro-1H-imidazol-2-yl)-phenyl]-(8-methoxy-2H-pyrazolo[3,4-c]quinolin-4-yl)-amine] | 10 to 100 nM | 100 to 1000 nM | < 5000 nM
COc1ccc2nc(Nc3ccc(N4CCN(C)CC4)c(C)c3)c3n[nH]cc3c2c1 [Example #183, (8-Methoxy-2H-pyrazolo[3,4-c]quinolin-4-yl)-[3-methyl-4-(4-methyl-piperazin-1-yl)-phenyl]-amine] | 10 to 100 nM | 10 to 100 nM | < 5000 nM
COc1ccc2nc(Nc3ccc(CO)cc3)c3n[nH]cc3c2c1 [Example #280, (4-((8-methoxy-2H-pyrazolo[3,4-c]quinolin-4-yl)amino)phenyl)methanol] | 10 to 100 nM | 100 to 1000 nM | < 5000 nM
COc1ccc2nc(Nc3ccc(C(=O)O)cc3)c3n[nH]cc3c2c1 [Example #57, 4-(8-Methoxy-2H-pyrazolo[3,4-c]quinolin-4-ylamino)-benzoic-acid] | 10 to 100 nM | 100 to 1000 nM | < 5000 nM
COc1ccc2nc(Nc3ccc(CN4CCOCC4)cc3)c3n[nH]cc3c2c1 [Example #237, (8-Methoxy-2H-pyrazolo[3,4-c]quinolin-4-yl)-(4-morpholin-4-ylmethyl-phenyl)-amine] | 10 to 100 nM | 10 to 100 nM | < 5000 nM
COc1ccc2nc(Nc3cccc(N4CCN(C)CC4)c3)c3n[nH]cc3c2c1 [Example #228, (8-Methoxy-2H-pyrazolo[3,4-c]quinolin-4-yl)-[3-(4-methyl-piperazin-1-yl)-phenyl]-amine] | 10 to 100 nM | 100 to 1000 nM | < 5000 nM
COc1cccc2c1nc(Nc1ccc3[nH]ncc3c1)c1n[nH]cc12 [Example #268, (1H-Indazol-5-yl)-(6-methoxy-2H-pyrazolo[3,4-c]quinolin-4-yl)-amine] | 10 to 100 nM | 100 to 1000 nM | < 5000 nM
COc1cccc2nc(Nc3ccc(N4CCN(C)CC4)cc3)c3n[nH]cc3c12 [Example #201, (9-Methoxy-2H-pyrazolo[3,4-c]quinolin-4-yl)-[4-(4-methyl-piperazin-1-yl)-phenyl]-amine] | 10 to 100 nM | 100 to 1000 nM | < 5000 nM
COc1ccc2nc(Nc3ccc(N4CCN(C5CCCC5)CC4)cc3)c3n[nH]cc3c2c1 [Example #269, [4-(4-Cyclopentyl-piperazin-1-yl)-phenyl]-(8-methoxy-2H-pyrazolo[3,4-c]quinolin-4-yl)-amine] | 100 to 1000 nM | 10 to 100 nM | < 5000 nM
COc1ccc2c(c1)nc(Nc1ccc3[nH]c(C)nc3c1)c1n[nH]cc12 [Example #264, (7-Methoxy-2H-pyrazolo[3,4-c]quinolin-4-yl)-(2-methyl-1H-benzoimidazol-5-yl)-amine] | 10 to 100 nM | 100 to 1000 nM | < 5000 nM
COc1ccc2nc(Nc3ccc(CN4CCN(C)CC4)cc3)c3n[nH]cc3c2c1 [Example #238, (8-Methoxy-2H-pyrazolo[3,4-c]quinolin-4-yl)-[4-(4-methyl-piperazin-1-ylmethyl)-phenyl]-amine] | 10 to 100 nM | 100 to 1000 nM | < 5000 nM
CN1CCN(c2ccc(Nc3nc4ccc(Br)cc4c4c[nH]nc34)cc2)CC1 [Example #43, (8-Bromo-2H-pyrazolo[3,4-c]quinolin-4-yl)-[4-(4-methyl-piperazin-1-yl)-phenyl]-amine] | < 10 nM | 100 to 1000 nM | < 5000 nM
COc1ccc2nc(Nc3ccc4nc(C)[nH]c4c3)c3n[nH]cc3c2c1 [Example #55, (8-Methoxy-2H-pyrazolo[3,4-c]quinolin-4-yl)-(2-methyl-3H-benzoimidazol-5-yl)-amine] | 10 to 100 nM | 100 to 1000 nM | < 5000 nM
